Results reported in publication PMC5805805 (Investigational New Drugs, 2017).

Tests used:
[1] = system: endometrial cancer; conditions: cited from earlier work
[2] = clinical
Description: (§1) The pharmacokinetic parameters were calculated using PKSolver. All P values were calculated using the R statistical programming language (paired Student’s t-test).

[3] = Everolimus pharmacokinetics in whole blood (HPLC-MS/MS), single-agent and combined with metformin; format: in vivo, human; conditions: for k el: read-out: λz (converted); for half-life: all 7 patients, mean (SD)
Description: as §1

[4] = everolimus; cited from earlier work

SMILES: CN(C)C(=N)N=C(N)N [metformin]
- rate of disease progression ([1]; self-reported metformin use with an mTOR inhibitor, vs. 33% without): 12%
- response rate to an mTOR inhibitor ([1]; self-reported metformin use, 94 patients, three trials of various mTOR inhibitors, vs. 7% without): 18%
- AUC ([2]; human, in vivo, 500 mg): 8320 ng·h/mL
- k el ([2]; human, in vivo, 500 mg): 4.72e-05 s⁻¹
- Cmax ([2]; metformin 500 mg bid, in combination with everolimus (day 15), n = 5, mean (SD)): 1027 (261) μg/l

SMILES: CO[C@H]1C[C@@H]2CC[C@@H](C)[C@@](O)(O2)C(=O)C(=O)N2CCCC[C@H]2C(=O)O[C@H]([C@H](C)C[C@@H]2CC[C@@H](OCCO)[C@H](OC)C2)CC(=O)[C@H](C)/C=C(\C)[C@@H](O)[C@@H](OC)C(=O)[C@H](C)C[C@H](C)/C=C/C=C/C=C/1C [everolimus]
- Cmax ([3]; everolimus 5 mg qd, in combination with metformin 500 mg bid, n = 2): 39.45 ng/mL
- Cmax ([3]; everolimus 5 mg qd, single-agent, n = 2): 34.80 ng/mL
- AUC ([3]; everolimus 10 mg qd, single-agent, AUC t = 0 to 24 h, n = 5, mean (SD)): 0.713 (0.35) mg/l*h
- AUC ([3]; human, whole blood, oral, 5 mg, everolimus 5 mg qd, single-agent, n = 2, read-out: AUC): 282 ng·h/mL
- k el ([3]; human, whole blood, oral, 5 mg, everolimus 5 mg qd, single-agent, n = 2): 1.22e-05 s⁻¹
- k el ([3]; human, whole blood, oral, 10 mg, everolimus 10 mg qd, single-agent, n = 5, mean (SD)): 7.78e-06 s⁻¹
- clearance ([3]; human, whole blood, oral, everolimus as single agent): 162 mL/min
- clearance ([3]; human, whole blood, oral, everolimus in combination with metformin): 300 mL/min
- AUC ([3]; human, whole blood, oral, everolimus 5 mg qd, in combination with metformin, n = 2, read-out: AUC): 254 ng·h/mL
- k el ([3]; human, whole blood, oral, everolimus 5 mg qd, in combination with metformin, n = 2): 9.72e-06 s⁻¹
- AUC ([3]; human, whole blood, oral, everolimus 10 mg qd, in combination with metformin, AUC t = 0 to 24 h, n = 5, mean (SD), read-out: AUC): 639 ng·h/mL
- k el ([3]; human, whole blood, oral, everolimus 10 mg qd, in combination with metformin, n = 5, mean (SD)): 8.06e-06 s⁻¹
- half-life ([3]; human, whole blood, oral, everolimus in combination with metformin (day 15)): 23.2 h
- half-life ([3]; human, whole blood, oral, everolimus single-agent (day 7)): 23.1 h
- Cmax ([3]; human, whole blood, oral, everolimus 10 mg qd, single-agent (day 7), n = 5, mean (SD), read-out: Cmax): 73.1 ng/mL
- elimination half-life (t1/2) [4]: 30 h
